Tests used:
[1] = test system: paddy field soil microorganisms; assay: Test Example 3: comparative test of methane-production inhibition with existing inhibitor BES in flooded paddy field soil (headspace GC); assay type: cell-based; settings: 0.5 mg/kg dry soil; for Methane-production amount (mg/L) 21 days after treatment: 21 days static incubation at 30° C., untreated plot 69.3; for Methane-production amount (mg/L) 28 days after treatment: 28 days static incubation at 30° C., untreated plot 119.2
Procedure: In a glass vial (21.5 mL volume) for headspace analysis, 4.0 g of paddy field soil (provisional specific gravity 1.18 g/cm^3) was weighed, and 8 mL of distilled water was added. In this flooded soil, a plot to which 20 μL of acetone solution containing 100 ppm of Compound I-1 was added (0.5 mg/kg dry soil (equivalent to 590 g/ha)) is provided as Example 10, a plot to which 20 μL of an aqueous solution containing 100 ppm of BES (a comparative compound) and acetone was added (0.5 mg/kg dry soil) is provided as Comparative Example 3, and an untreated plot to which 20 μL of acetone was added is provided as Comparative Example 4. After 100 μL of a culture solution of paddy field soil microorganisms was added to these glass vials, the vials were tightly sealed using septum and aluminum caps, and allowed to stand at 30° C. for static incubation. After 21 and 28 days of incubation treatment, 0.5 mL of gas was collected from a headspace in a glass vial sample using a gas tight syringe and analyzed for methane production by gas chromatography (GC). The comparative compound, BES (CAS No.: 4263-52-9; 2-Bromoethanesulfonate), is an existing methane-production inhibitor and a product manufactured by Tokyo Chemical Industry Co., Ltd.

[2] = test system: paddy field soil microorganisms; assay: Test Example 2: methane-production inhibition test by various methane-production inhibitors in flooded paddy field soil (headspace GC); assay type: cell-based; settings: for Methane-production amount compared to untreated plot: 0.5 mg/kg dry soil treatment; for Methane-production amount (mg/L) 21 days after treatment / Methane-production amount (mg/L) 28 days after treatment: 0.5 mg/kg dry soil; for Methane-production amount (mg/L) 21 days after treatment: 21 days static incubation at 30° C., untreated plot 19.6; for Methane-production amount (mg/L) 28 days after treatment: 28 days static incubation at 30° C., untreated plot 44.3
Procedure: In a glass vial (21.5 mL volume) for headspace analysis, 4.0 g of paddy field soil (provisional specific gravity 1.18 g/cm^3) was weighed, and 8 mL of distilled water was added. In this flooded soil, plots to which 40 μL of acetone solution containing 50 ppm of the compounds listed in Table 2 below were added (0.5 mg/kg dry soil (equivalent to 590 g/ha)), respectively, were provided as Examples 4 to 9. As Comparative Example 2, an untreated plot to which 40 μL of acetone was added was provided. After 100 μL of a culture solution of paddy field soil microorganisms was added to these glass vials, the vials were tightly sealed using septum and aluminum caps, and allowed to stand at 30° C. for static incubation. After 21 and 28 days of incubation treatment, 0.5 mL of gas was collected from a headspace in a glass vial sample using a gas tight syringe and analyzed for methane production by gas chromatography (GC).

[3] = test system: paddy field soil microorganisms; assay: Test Example 1: methane-production inhibition test by Compound I-1 in flooded paddy field soil (headspace GC); assay type: cell-based; settings: for Methane-production amount (mg/L) 21 days after treatment: 21 days static incubation at 30° C., untreated plot 34.0; for Methane-production amount (mg/L) 28 days after treatment: 28 days static incubation at 30° C., untreated plot 38.9
Procedure: In a glass vial (21.5 mL volume) for headspace analysis, 4.0 g of paddy field soil (provisional specific gravity 1.18 g/cm^3) was weighed, and 8 mL of distilled water was added. In this flooded soil, a plot to which 40 μL of 10 ppm Compound I-1-containing acetone solution was added (0.1 mg/kg dry soil (equivalent to 118 g/ha)) was provided as Example 1, and a plot to which 20 μL of 100 ppm Compound I-1-containing acetone solution was added (0.5 mg/kg dry soil (equivalent to 590 g/ha)) and a plot to which 40 μL of 100 ppm Compound I-1-containing acetone solution was added (1 mg/kg dry soil (equivalent to 1180 g/ha)) were provided as Examples 2 and 3. As Comparative Example 1, an untreated plot to which 40 μL of acetone was added was provided. After 100 μL of a culture solution of paddy field soil microorganisms was added to these glass vials, the vials were tightly sealed using septum and aluminum caps, and allowed to stand at 30° C. for static incubation. After 21 and 28 days of incubation treatment, 0.5 mL of gas was collected from a headspace in a glass vial sample using a gas tight syringe and analyzed for methane production by gas chromatography (GC). The amount treatment (g) per 1 ha was converted according to the OECD Guideline Test No. 307 issued in 2002, based on the provisional specific gravity of the paddy field soil used.

[4] = test system: methane-producing bacteria; settings: 80 mg/kg; paddy fields during rice cultivation; cited from earlier work
dairy cattle = settings: feed treated with from 40 to 80 mg/kg; cited from earlier work

O=C(Oc1ccc(OS(=O)(=O)CCl)cc1)c1ccccc1 [Compound I-1]
Methane reduction amount relative to the reduction amount due to the comparative compound [1]: significantly greater | Methane-production amount compared to untreated plot [1]: reduced | Methane-production amount (mg/L) 21 days after treatment [1]: 13.4 mg/L | Methane-production amount (mg/L) 28 days after treatment [1]: 34.2 mg/L | Methane-production amount compared to untreated plot [2]: particularly high reduction effect | Methane-production amount (mg/L) 21 days after treatment [2]: 2.5 mg/L | Methane-production amount (mg/L) 28 days after treatment [2]: 3.8 mg/L | Methane-production amount compared to untreated plot ([3]; 0.1 mg/kg dry soil (Example 1)): reduced | Methane-production amount (mg/L) 21 days after treatment ([3]; 0.1 mg/kg dry soil): 9.1 mg/L | Methane-production amount (mg/L) 28 days after treatment ([3]; 0.1 mg/kg dry soil): 21.3 mg/L | Methane-production reduction effect compared to untreated plot ([3]; 0.5 mg/kg dry soil and above (Examples 2 and 3)): higher reduction effect | Methane-production amount (mg/L) 21 days after treatment ([3]; 0.5 mg/kg dry soil): 2.8 mg/L | Methane-production amount (mg/L) 28 days after treatment ([3]; 0.5 mg/kg dry soil): 3.7 mg/L | Methane-production amount (mg/L) 21 days after treatment ([3]; 1 mg/kg dry soil): 2.5 mg/L | Methane-production amount (mg/L) 28 days after treatment ([3]; 1 mg/kg dry soil): 3.1 mg/L

O=S(=O)([O-])CCBr.[Na+] [BES, 2-Bromoethanesulfonate, reference compound]
Reduction of methane emissions compared to a control area [4]: 49% | Methane-production amount compared to untreated plot [1]: reduced | Methane-production amount (mg/L) 21 days after treatment [1]: 32.9 mg/L | Methane-production amount (mg/L) 28 days after treatment [1]: 80.5 mg/L

O=[N+]([O-])OCCCO [Compound 3-NOP, 3-nitrooxypropanol]
Reduction of methane emissions from dairy cattle (dairy cattle): 30%

CS(=O)(=O)Oc1ccc(O)cc1 [Compound I-6]
Methane-production amount (mg/L) 21 days after treatment [2]: 16.7 mg/L | Methane-production amount (mg/L) 28 days after treatment [2]: 28.3 mg/L

O=S(=O)(CCl)c1ccc(Br)cc1 [Compound I-3]
Methane-production amount (mg/L) 21 days after treatment [2]: 5.3 mg/L | Methane-production amount (mg/L) 28 days after treatment [2]: 14.7 mg/L

O=S(=O)(CO)c1ccc(Br)cc1 [Compound I-5]
Methane-production amount (mg/L) 21 days after treatment [2]: 15.7 mg/L | Methane-production amount (mg/L) 28 days after treatment [2]: 24.3 mg/L

O=S(=O)(CCl)Oc1ccc(O)cc1 [Compound I-2]
Methane-production amount compared to untreated plot [2]: particularly high reduction effect | Methane-production amount (mg/L) 21 days after treatment [2]: 2.5 mg/L | Methane-production amount (mg/L) 28 days after treatment [2]: 4.4 mg/L

O=S(=O)(CCl)c1ccc(O)cc1 [Compound I-4]
Methane-production amount (mg/L) 21 days after treatment [2]: 5.4 mg/L | Methane-production amount (mg/L) 28 days after treatment [2]: 16.7 mg/L

Reference: patent US11795145B2, “Methane-production inhibitor composition and method for inhibiting methane production” (KUMIAI CHEMICAL INDUSTRY CO., LTD., priority 2020, dated 2023)
